Measured values taken from PubChem BioAssay AID1963437 (Molecular Pharmacology Branch, DTP, NCI, 2024).

Tested on: OVCAR-8 complex spheroid, growth inhibition
Test: Anticancer human tumor OVCAR-8 cell line growth inhibition [Asc];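 further: spheroids exposed to agents for 7 days before readout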;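 on viability, T/C: percent viability relative to DMSO vehicle wells taken as 100%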
Settings: for IC50: curve of first compound; for viability, T/C: stronger effect = lower value
Summary of the method: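 Complex solid-tumor spheroids incorporating human endothelial and mesenchymal stem cells received single agents or combinations over half-log dilution ranges anchored to clinical Cmax.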

[1] = second compound 0.00316 µM, first compound 0.0316 µM
[2] = second compound 0.00316 µM, first compound 0.1 µM
[3] = second compound 0.01 µM, first compound 0.0316 µM
[4] = second compound 0.01 µM, first compound 0.1 µM
[5] = second compound 0.0316 µM, first compound 0.0316 µM
[6] = second compound 0.0316 µM, first compound 0.1 µM
[7] = second compound 0.1 µM, first compound 0.0316 µM
[8] = second compound 0.1 µM, first compound 0.1 µM
[9] = second compound 0.316 µM, first compound 0.0316 µM
[10] = second compound 0.316 µM, first compound 0.1 µM
[11] = second compound 1 µM, first compound 0.0316 µM
[12] = second compound 1 µM, first compound 0.1 µM

## Cc1nc(N2CCC3(CC2)COC(C)C3N)c(CO)nc1Sc1ccnc(N)c1Cl (stereo unspecified) + CCN1C(C(=O)NC23CCC(C(=O)O)(CC2)CC3)C(c2cccc(Cl)c2F)C2(C(=O)Nc3cc(Cl)ccc32)C12CCCCC2
Second compound 0.00949 µM
  IC50: > 3 µM
Second compound 0.03 µM
  IC50: > 3 µM
Second compound 0.0949 µM
  IC50: > 3 µM
Second compound 0.3 µM
  IC50: > 3 µM
Second compound 0.949 µM
  IC50: > 3 µM
Second compound 3 µM
  IC50: > 3 µM
Second compound 0.00949 µM, first compound 0.00949 µM
  viability, T/C: 101%
Second compound 0.00949 µM, first compound 0.03 µM
  viability, T/C: 122%
Second compound 0.00949 µM, first compound 0.0949 µM
  viability, T/C: 152%
Second compound 0.00949 µM, first compound 0.3 µM
  viability, T/C: 216%
Second compound 0.00949 µM, first compound 0.949 µM
  viability, T/C: 263%
Second compound 0.00949 µM, first compound 3 µM
  viability, T/C: 209%
Second compound 0.03 µM, first compound 0.00949 µM
  viability, T/C: 108%
Second compound 0.03 µM, first compound 0.03 µM
  viability, T/C: 139%
Second compound 0.03 µM, first compound 0.0949 µM
  viability, T/C: 142%
Second compound 0.03 µM, first compound 0.3 µM
  viability, T/C: 204%
Second compound 0.03 µM, first compound 0.949 µM
  viability, T/C: 241%
Second compound 0.03 µM, first compound 3 µM
  viability, T/C: 221%
Second compound 0.0949 µM, first compound 0.00949 µM
  viability, T/C: 103%
Second compound 0.0949 µM, first compound 0.03 µM
  viability, T/C: 117%
Second compound 0.0949 µM, first compound 0.0949 µM
  viability, T/C: 154%
Second compound 0.0949 µM, first compound 0.3 µM
  viability, T/C: 200%
Second compound 0.0949 µM, first compound 0.949 µM
  viability, T/C: 244%
Second compound 0.0949 µM, first compound 3 µM
  viability, T/C: 228%
Second compound 0.3 µM, first compound 0.00949 µM
  viability, T/C: 115%
Second compound 0.3 µM, first compound 0.03 µM
  viability, T/C: 126%
Second compound 0.3 µM, first compound 0.0949 µM
  viability, T/C: 153%
Second compound 0.3 µM, first compound 0.3 µM
  viability, T/C: 221%
Second compound 0.3 µM, first compound 0.949 µM
  viability, T/C: 251%
Second compound 0.3 µM, first compound 3 µM
  viability, T/C: 232%
Second compound 0.949 µM, first compound 0.00949 µM
  viability, T/C: 106%
Second compound 0.949 µM, first compound 0.03 µM
  viability, T/C: 101%
Second compound 0.949 µM, first compound 0.0949 µM
  viability, T/C: 175%
Second compound 0.949 µM, first compound 0.3 µM
  viability, T/C: 229%
Second compound 0.949 µM, first compound 0.949 µM
  viability, T/C: 223%
Second compound 0.949 µM, first compound 3 µM
  viability, T/C: 214%
Second compound 3 µM, first compound 0.00949 µM
  viability, T/C: 125%
Second compound 3 µM, first compound 0.03 µM
  viability, T/C: 140%
Second compound 3 µM, first compound 0.0949 µM
  viability, T/C: 171%
Second compound 3 µM, first compound 0.3 µM
  viability, T/C: 214%
Second compound 3 µM, first compound 0.949 µM
  viability, T/C: 192%
Second compound 3 µM, first compound 3 µM
  viability, T/C: 169%

## Cn1ncnc1[C@H]1c2n[nH]c(=O)c3cc(F)cc(c23)N[C@@H]1c1ccc(F)cc1 + CNC(C)C(=O)NC1CN(S(=O)(=O)c2cccc(S(=O)(=O)N3CCC4CCC(C(=O)NC(c5ccccc5)c5ccccc5)N4C(=O)C(NC(=O)C(C)NC)C3)c2)CCC2CCC(C(=O)NC(c3ccccc3)c3ccccc3)N2C1=O
Second compound 0.00316 µM
  IC50: < 0.000316 µM
Second compound 0.01 µM
  IC50: > 0.1 µM
Second compound 0.0316 µM
  IC50: > 0.1 µM
Second compound 0.1 µM
  IC50: > 0.1 µM
Second compound 0.316 µM
  IC50: > 0.1 µM
Second compound 1 µM
  IC50: > 0.1 µM
Second compound 0.00316 µM, first compound 0.000316 µM
  viability, T/C: 1.94%
Second compound 0.00316 µM, first compound 0.001 µM
  viability, T/C: 1.14%
Second compound 0.00316 µM, first compound 0.00316 µM
  viability, T/C: 0.66%
Second compound 0.00316 µM, first compound 0.01 µM
  viability, T/C: 1.15%
[1]
  viability, T/C: 0.71%
[2]
  viability, T/C: 0.74%
Second compound 0.01 µM, first compound 0.000316 µM
  viability, T/C: 106%
Second compound 0.01 µM, first compound 0.001 µM
  viability, T/C: 100%
Second compound 0.01 µM, first compound 0.00316 µM
  viability, T/C: 102%
Second compound 0.01 µM, first compound 0.01 µM
  viability, T/C: 109%
[3]
  viability, T/C: 104%
[4]
  viability, T/C: 120%
Second compound 0.0316 µM, first compound 0.000316 µM
  viability, T/C: 91.7%
Second compound 0.0316 µM, first compound 0.001 µM
  viability, T/C: 106%
Second compound 0.0316 µM, first compound 0.00316 µM
  viability, T/C: 91.9%
Second compound 0.0316 µM, first compound 0.01 µM
  viability, T/C: 97.1%
[5]
  viability, T/C: 99.9%
[6]
  viability, T/C: 95.5%
Second compound 0.1 µM, first compound 0.000316 µM
  viability, T/C: 106%
Second compound 0.1 µM, first compound 0.001 µM
  viability, T/C: 101%
Second compound 0.1 µM, first compound 0.00316 µM
  viability, T/C: 87.2%
Second compound 0.1 µM, first compound 0.01 µM
  viability, T/C: 95.1%
[7]
  viability, T/C: 98.9%
[8]
  viability, T/C: 94.6%
Second compound 0.316 µM, first compound 0.000316 µM
  viability, T/C: 76.5%
Second compound 0.316 µM, first compound 0.001 µM
  viability, T/C: 79.7%
Second compound 0.316 µM, first compound 0.00316 µM
  viability, T/C: 84.5%
Second compound 0.316 µM, first compound 0.01 µM
  viability, T/C: 107%
[9]
  viability, T/C: 97.6%
[10]
  viability, T/C: 85.4%
Second compound 1 µM, first compound 0.000316 µM
  viability, T/C: 69.5%
Second compound 1 µM, first compound 0.001 µM
  viability, T/C: 81.3%
Second compound 1 µM, first compound 0.00316 µM
  viability, T/C: 94.9%
Second compound 1 µM, first compound 0.01 µM
  viability, T/C: 86.4%
[11]
  viability, T/C: 96.2%
[12]
  viability, T/C: 95.5%

## O=C(c1cc(Cc2n[nH]c(=O)c3ccccc23)ccc1F)N1CCN(C(=O)C2CC2)CC1 + CNC(C)C(=O)NC1CN(S(=O)(=O)c2cccc(S(=O)(=O)N3CCC4CCC(C(=O)NC(c5ccccc5)c5ccccc5)N4C(=O)C(NC(=O)C(C)NC)C3)c2)CCC2CCC(C(=O)NC(c3ccccc3)c3ccccc3)N2C1=O
Second compound 0.00316 µM
  IC50: < 0.0316 µM
Second compound 0.01 µM
  IC50: > 10 µM
Second compound 0.0316 µM
  IC50: > 10 µM
Second compound 0.1 µM
  IC50: > 10 µM
Second compound 0.316 µM
  IC50: 9.9 µM
Second compound 1 µM
  IC50: 6.84 µM
[1]
  viability, T/C: 0.81%
[2]
  viability, T/C: 1.08%
Second compound 0.00316 µM, first compound 0.316 µM
  viability, T/C: 0.69%
Second compound 0.00316 µM, first compound 1 µM
  viability, T/C: 1.07%
Second compound 0.00316 µM, first compound 3.16 µM
  viability, T/C: 1.9%
Second compound 0.00316 µM, first compound 10 µM
  viability, T/C: 0.51%
[3]
  viability, T/C: 111%
[4]
  viability, T/C: 102%
Second compound 0.01 µM, first compound 0.316 µM
  viability, T/C: 101%
Second compound 0.01 µM, first compound 1 µM
  viability, T/C: 110%
Second compound 0.01 µM, first compound 3.16 µM
  viability, T/C: 112%
Second compound 0.01 µM, first compound 10 µM
  viability, T/C: 79.2%
[5]
  viability, T/C: 94%
[6]
  viability, T/C: 99.3%
Second compound 0.0316 µM, first compound 0.316 µM
  viability, T/C: 101%
Second compound 0.0316 µM, first compound 1 µM
  viability, T/C: 94.7%
Second compound 0.0316 µM, first compound 3.16 µM
  viability, T/C: 103%
Second compound 0.0316 µM, first compound 10 µM
  viability, T/C: 87%
[7]
  viability, T/C: 80.3%
[8]
  viability, T/C: 86.4%
Second compound 0.1 µM, first compound 0.316 µM
  viability, T/C: 88.6%
Second compound 0.1 µM, first compound 1 µM
  viability, T/C: 101%
Second compound 0.1 µM, first compound 3.16 µM
  viability, T/C: 83.9%
Second compound 0.1 µM, first compound 10 µM
  viability, T/C: 79.1%
[9]
  viability, T/C: 83.7%
[10]
  viability, T/C: 100%
Second compound 0.316 µM, first compound 0.316 µM
  viability, T/C: 90.4%
Second compound 0.316 µM, first compound 1 µM
  viability, T/C: 82.4%
Second compound 0.316 µM, first compound 3.16 µM
  viability, T/C: 90.9%
Second compound 0.316 µM, first compound 10 µM
  viability, T/C: 49.7%
[11]
  viability, T/C: 79.2%
[12]
  viability, T/C: 90.7%
Second compound 1 µM, first compound 0.316 µM
  viability, T/C: 99.5%
Second compound 1 µM, first compound 1 µM
  viability, T/C: 90.3%
Second compound 1 µM, first compound 3.16 µM
  viability, T/C: 92.5%
Second compound 1 µM, first compound 10 µM
  viability, T/C: 29.8%
